Here are results for 27 compounds from patent US10934283B2, “COMT inhibiting methods and compositions” (LIEBER INSTITUTE FOR BRAIN DEVELOPMENT, priority 2015, dated 2021).

The structures appear in SMILES notation.

The target in the assay is T1, catechol-O-methyltransferase (COMT) (Homo sapiens, UniProt P21964).
T1 construct: M51A variant) was expressed in HEK 293F cells
T1 sequence (P21964 52-271 limits assumed): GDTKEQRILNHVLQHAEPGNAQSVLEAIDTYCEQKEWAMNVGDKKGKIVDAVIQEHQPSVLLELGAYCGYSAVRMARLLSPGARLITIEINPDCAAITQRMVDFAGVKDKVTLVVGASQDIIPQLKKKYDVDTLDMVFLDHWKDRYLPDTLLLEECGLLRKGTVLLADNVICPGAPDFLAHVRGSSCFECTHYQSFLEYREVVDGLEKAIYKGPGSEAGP
Nature of the assay: COMT inhibition assay (HTRF, production of SAH from SAM). It is filed as biochemical. To be noted: table does not say MB-COMT or S-COMT. The procedure: The ability of compounds to inhibit the activity of catechol-O-methyltransferase (COMT) was determined by a homogenous time-resolved fluorescent (HTRF) assay (Lina et al, 2012; kit from CisBio, Codolet, France). This assay measures the production of S-adenosyl homocysteine (SAH) from the methyl donor S-adenosyl methionine. Recombinant human membrane bound COMT (MB-COMT; M51A variant) was expressed in HEK 293F cells using 293Fectin (Life Technologies, Gent, Belgium) and membranes prepared. The membranes were re-suspended in buffer (20 mM Tris/HCl pH 7; 10 mM glycerol; 2 mM MgCl2; 10 mM NaCl), aliquoted and stored at −80° C. Recombinant human soluble COMT(S-COMT), Val158 variant and a hexa-His tag on the N-terminus, was purified using Ni-NTA chromatography, the His tag removed and stored in buffer as above.
For the human MB-COMT assay, membranes (62 ng/well) were incubated with SAM (20 μM final, CisBio) and dopamine (1.5 μM final; Sigma H8502, Diegem, Belgium) in the presence or absence of varying concentrations (typically 10 concentrations ranging from 10 ? M to 0.1 nM) of compound for 40 min at 37° C. in 384-well microtiter plates (10 ? l per well final volume). The reaction was terminated by the addition of acylation buffer and the amount of SAH produced determined according to manufacturer's instructions. Specific inhibition as that inhibited by a high concentration of tolcapone and all experiments were validated using a control curve to tolcapone.
The human S-COMT assay was performed as above except that 0.15 ng enzyme/well was incubated with SAM ([…]) and dopamine (100 μM final) for 15 min at 37° C. and SAH production determined.
HTRF readings were performed using a Perkin Elmer Envision and results expressed as concentration of SAH produced using a standard curve. Results were analyzed using non-linear regression to the 4-parameter logistic equation and pIC50 (−log 10 concentration of drug which inhibits enzyme activity/SAH production by 50%) determined.
In general terms: In TR-FRET formats the signal depends on donor and acceptor labels being close together.

Consider `Cc1cccc(C)c1CN1CCn2cc(O)c(=O)cc2C1` [Example 27, 2-(2,6-dimethylbenzyl)-7-hydroxy-1,2,3,4-tetrahydro-8H-pyrido[1,2-a]pyrazin-8-one], for which the “Activity range (pIC50)” value is reported as “+++ (three plus signs (+++) is associated with a pIC50 of above about 7)”. As for `O=c1cc2n(cc1O)CCN(Cc1ccc(Oc3ccccc3)cc1)C2` [Example 47, 7-hydroxy-2-(4-phenoxybenzyl)-1,2,3,4-tetrahydro-8H-pyrido[1,2-a]pyrazin-8-one], the “Activity range (pIC50)” value was “+++ (three plus signs (+++) is associated with a pIC50 of above about 7)”. For `CCc1ccc(CN2CCn3cc(O)c(=O)cc3C2C(C)C)cc1` (stereo not drawn) [Example 120, 2-(4-ethylbenzyl)-7-hydroxy-1-(propan-2-yl)-1,2,3,4-tetrahydro-8H-pyrido[1,2-a]pyrazin-8-one], the “Activity range (pIC50)” value is listed as “+++ (three plus signs (+++) is associated with a pIC50 of above about 7)”. To `O=c1cc2n(cc1O)CCN(CCn1nc3ccccc3n1)C2` [Example 5, 2-[2-(benzotriazol-2-yl)ethyl]-7-hydroxy-3,4-dihydro-1H-pyrido[1,2-a]pyrazin-8-one] belongs “+ (a single plus (+) is associated with a pIC50 of from about 4.5 to 6)”; to `CC(c1ccccc1OCc1ccccc1)N1CCn2cc(O)c(=O)cc2C1` (stereo not drawn) [Example 77, 2-{1-[2-(benzyloxy)phenyl]ethyl}-7-hydroxy-1,2,3,4-tetrahydro-8H-pyrido[1,2-a]pyrazin-8-one], “+++ (three plus signs (+++) is associated with a pIC50 of above about 7)”. To `Cc1cccc(CN2CCn3cc(O)c(=O)cc3C2)c1C` [Example 37, 2-(2,3-dimethylbenzyl)-7-hydroxy-1,2,3,4-tetrahydro-8H-pyrido[1,2-a]pyrazin-8-one] belongs “+++ (three plus signs (+++) is associated with a pIC50 of above about 7)”. On to `Cc1cccc(C)c1CN1CCn2cc(O)c(=O)cc2C1C` (stereo not drawn) [Example 121, 2-(2,6-dimethylbenzyl)-7-hydroxy-1-methyl-1,2,3,4-tetrahydro-8H-pyrido[1,2-a]pyrazin-8-one], for which the “Activity range (pIC50)” value was “+++ (three plus signs (+++) is associated with a pIC50 of above about 7)”. To `CC(c1cc(F)ccc1F)N1CCn2cc(O)c(=O)cc2C1` (stereo not drawn) [Example 97, 2-[1-(2,5-difluorophenyl)ethyl]-7-hydroxy-1,2,3,4-tetrahydro-8H-pyrido[1,2-a]pyrazin-8-one] belongs “+++ (three plus signs (+++) is associated with a pIC50 of above about 7)”. Then `CC(c1ccccc1Cl)N1CCn2cc(O)c(=O)cc2C1` (stereo not drawn) [Example 76, 2-[1-(2-chlorophenyl)ethyl]-7-hydroxy-1,2,3,4-tetrahydro-8H-pyrido[1,2-a]pyrazin-8-one], with “+++ (three plus signs (+++) is associated with a pIC50 of above about 7)”; and `COc1ccccc1CN1CCn2cc(O)c(=O)cc2C1` [Example 51, 7-hydroxy-2-(2-methoxybenzyl)-1,2,3,4-tetrahydro-8H-pyrido[1,2-a]pyrazin-8-one], with “++ (two plus signs (++) is associated with a pIC50 of from about 6 to 7)”; and `CCc1ccc(C(C)N2CCn3cc(O)c(=O)cc3C2)cc1` (stereo not drawn) [Example 16, 2-[1-(4-ethylphenyl)ethyl]-7-hydroxy-1,2,3,4-tetrahydro-8H-pyrido[1,2-a]pyrazin-8-one], with “+++ (three plus signs (+++) is associated with a pIC50 of above about 7)”.

In the case of `O=c1cc2n(cc1O)CC(Cc1ccccc1)N(Cc1ccccc1)C2` (stereo not drawn) [Example 128, 2,3-dibenzyl-7-hydroxy-1,2,3,4-tetrahydro-8H-pyrido[1,2-a]pyrazin-8-one], the “Activity range (pIC50)” value is reported as “++ (two plus signs (++) is associated with a pIC50 of from about 6 to 7)”. As to `CC1(C)CCCC2=C1CC(CN1CCn3cc(O)c(=O)cc3C1)CC2` (stereo not drawn) [Example 24, 2-[(8,8-dimethyl-1,2,3,4,5,6,7,8-octahydronaphthalen-2-yl)methyl]-7-hydroxy-1,2,3,4-tetrahydro-8H-pyrido[1,2-a]pyrazin-8-one], the “Activity range (pIC50)” value is given as “+++ (three plus signs (+++) is associated with a pIC50 of above about 7)”. Then `Cc1ccccc1C(C)N1CCn2cc(O)c(=O)cc2C1` (stereo not drawn) [Example 67, 7-hydroxy-2-[1-(2-methylphenyl)ethyl]-1,2,3,4-tetrahydro-8H-pyrido[1,2-a]pyrazin-8-one], with “+++ (three plus signs (+++) is associated with a pIC50 of above about 7)”; and `CC(CN1CCn2cc(O)c(=O)cc2C1)c1ccccc1` (stereo not drawn) [Example 31, 7-hydroxy-2-(2-phenylpropyl)-1,2,3,4-tetrahydro-8H-pyrido[1,2-a]pyrazin-8-one], with “++ (two plus signs (++) is associated with a pIC50 of from about 6 to 7)”; and `O=c1cc2n(cc1O)CCN(Cc1c(Cl)cccc1Cl)C2c1ccccc1` (stereo not drawn) [Example 117, 2-(2,6-dichlorobenzyl)-7-hydroxy-1-phenyl-1,2,3,4-tetrahydro-8H-pyrido[1,2-a]pyrazin-8-one], with “+++ (three plus signs (+++) is associated with a pIC50 of above about 7)”. To `O=c1cc2n(cc1O)CCN(Cc1cc3ccccc3n1S(=O)(=O)c1ccccc1)C2` [Example 29, 7-hydroxy-2-{[1-(phenylsulfonyl)-1H-indol-2-yl]methyl}-1,2,3,4-tetrahydro-8H-pyrido[1,2-a]pyrazin-8-one] belongs “+++ (three plus signs (+++) is associated with a pIC50 of above about 7)”; to `CCc1ccc(CN2CCn3cc(O)c(=O)cc3C2C)cc1` (stereo not drawn) [Example 122, 2-(4-ethylbenzyl)-7-hydroxy-1-methyl-1,2,3,4-tetrahydro-8H-pyrido[1,2-a]pyrazin-8-one], “+++ (three plus signs (+++) is associated with a pIC50 of above about 7)”; to `O=c1cc2n(cc1O)CCN(Cc1ccc(OCc3ccccc3)cc1)C2` [Example 52, 2-[4-(benzyloxy)benzyl]-7-hydroxy-1,2,3,4-tetrahydro-8H-pyrido[1,2-a]pyrazin-8-one], “+++ (three plus signs (+++) is associated with a pIC50 of above about 7)”. Regarding `O=c1cc2n(cc1O)CCN(C1CCc3cccc(F)c31)C2` (stereo not drawn) [Example 79, 2-(7-fluoro-2,3-dihydro-1H-inden-1-yl)-7-hydroxy-1,2,3,4-tetrahydro-8H-pyrido[1,2-a]pyrazin-8-one], the “Activity range (pIC50)” value is “+++ (three plus signs (+++) is associated with a pIC50 of above about 7)”. Then `O=c1cc2n(cc1O)CCN(C1(c3ccccc3)COC1)C2` [Example 111, 7-hydroxy-2-(3-phenyloxetan-3-yl)-3,4-dihydro-1H-pyrido[1,2-a]pyrazin-8-one], with “++ (two plus signs (++) is associated with a pIC50 of from about 6 to 7)”; and `O=c1cc2n(cc1O)CC(c1ccccc1)N(Cc1ccccc1)C2` (stereo not drawn) [Example 127, 2-benzyl-7-hydroxy-3-phenyl-1,2,3,4-tetrahydro-8H-pyrido[1,2-a]pyrazin-8-one], with “+++ (three plus signs (+++) is associated with a pIC50 of above about 7)”. Regarding `O=c1cc2n(cc1O)CCN(Cc1ccc3nsnc3c1)C2` [Example 54, 2-(2,1,3-benzothiadiazol-5-ylmethyl)-7-hydroxy-1,2,3,4-tetrahydro-8H-pyrido[1,2-a]pyrazin-8-one], the “Activity range (pIC50)” value was “++ (two plus signs (++) is associated with a pIC50 of from about 6 to 7)”.

For `O=c1cc2n(cc1O)CCN(C(CF)c1ccccc1)C2` (stereo not drawn) [Example 105, 2-(2-fluoro-1-phenyl-ethyl)-7-hydroxy-3,4-dihydro-1H-pyrido[1,2-a]pyrazin-8-one], the “Activity range (pIC50)” value is recorded as “+++ (three plus signs (+++) is associated with a pIC50 of above about 7)”. Take `Cc1cccc(C(C)N2CCn3cc(O)c(=O)cc3C2)c1` (stereo not drawn) [Example 71, 7-hydroxy-2-[1-(3-methylphenyl)ethyl]-1,2,3,4-tetrahydro-8H-pyrido[1,2-a]pyrazin-8-one]: the “Activity range (pIC50)” value is “++ (two plus signs (++) is associated with a pIC50 of from about 6 to 7)”. To `O=c1cc2n(cc1O)CCN(Cc1ccccn1)C2` [Example 11, 7-hydroxy-2-(pyridin-2-ylmethyl)-1,2,3,4-tetrahydro-8H-pyrido[1,2-a]pyrazin-8-one] belongs “++ (two plus signs (++) is associated with a pIC50 of from about 6 to 7)”; to `COc1ccc2c(c1)C(N1CCn3cc(O)c(=O)cc3C1)CCC2` (stereo not drawn) [Example 91, 7-hydroxy-2-(7-methoxy-1,2,3,4-tetrahydronaphthalen-1-yl)-1,2,3,4-tetrahydro-8H-pyrido[1,2-a]pyrazin-8-one], “+++ (three plus signs (+++) is associated with a pIC50 of above about 7)”.
